From US8969400B2, “Pharmaceutical compositions of 5-hydroxytryptophan and serotonin-enhancing compound” (Duke University, priority 2007, dated 2015)

Columns and labels:
Format in all cases: in vivo, mouse
[1] = test system: NMRI mice; test: Tail suspension test in NMRI mice; conditions: single drug i.p. 30 min prior to test, 6 min test
Source text: Drug candidates can be screened for antidepressant-like activity by using animal models. In the tail suspension test the mouse is suspended by its tail. The mouse will initially move and struggle but will with time become increasingly immobile. Pretreatment with a clinically effective antidepressant decreases the time spent immobile. This includes selective serotonin re-uptake inhibitors (SSRIs) and drugs inhibiting the noradrenaline reuptake mechanism, as well as some putative antidepressants with non-monoamine pharmacology. […] In animal models of depression, including the tail suspension test, mouse strains differ considerably in their responsiveness to antidepressants. This may parallel the clinical situation where a considerable subset of patients is refractory to pharmacotherapy. […] In our laboratory mice of the NMRI strain consistently fails to repond to SSRIs in the tail suspension test of antidepressant activity, while C57 mice show a strong response (FIG. 1). Male NMRI and C57Bl/6j mice (Taconic Europe, St. […]) weighing 25-35 g were housed and habituated for at least 7 days before the experiments in Macrolon III cages (20×40×18 cm) with eight mice per cage. Chow and water were available ad libitum, with lights on at 6 a.m. and off at 6 p.m. All behavioral testing was conducted during the light phase. […] All drugs were administered i.p. in saline in a volume of 10 ml/kg. In the tail suspension and locomotor activity experiments drugs were injected 30 min prior to test. The tail suspension test employed was a modified version to that described elsewhere. Mice were suspended individually by the tail using adhesive tape (attached 2 cm from tip of the tail) to a hook attached to a strain gauge and left there for 6 min. The duration of immobility was measured using an automated system (Med Associates, USA) during the 6 min testing period. Tail suspension data were analyzed either using one-way ANOVA (single-drug treatments) or two-way ANOVA (paroxetine/5-HTP and citalopram/5-HTP) with Dunnets post-hoc test. Locomotor activity data were analyzed using two-way ANOVA with Dunnets post-hoc test. Tissue 5-HT data were analyzed using students t-test. Microdialysis 5-HT data were analyzed using two-way repeated measures ANOVA with Dunnets post-hoc test.

[2] = test system: extracellular 5-HT; test: Microdialysis of extracellular 5-HT in frontal cortex, NMRI mice; conditions: citalopram 20 mg/kg, 5-HTP 12.5 mg/kg
Description: (§1) Male NMRI and C57Bl/6j mice (Taconic Europe, St. Laven, DK) weighing 25-35 g were housed and habituated for at least 7 days before the experiments in Macrolon III cages (20×40×18 cm) with eight mice per cage. Chow and water were available ad libitum, with lights on at 6 a.m. and off at 6 p.m. All behavioral testing was conducted during the light phase.
Microdialysis were performed in freely moving mice as previously described in Jacobsen J P et al.; Neuroscience 2005; 132:1055-1072. The flowrate was 1 ul/min and 20 min samples were collected. Four baseline samples were collected whereafter saline, 5-HTP (12.5 mg/kg), citalopram (20 mg/kg) or citalopram+5-HTP were injected and six additional samples where collected. Samples were collected on ice, immediatedly frozen on dry ice and stored at −80° C. until analysis by HPLC-EC.
(§2) 5-HT in tissue and microdialysis samples were analysed using HPLC-EC as previously described in Weikop P et al.; Eur Neuropsychopharmacol 2007; 17:658-671.
(§3) Tail suspension data were analyzed either using one-way ANOVA (single-drug treatments) or two-way ANOVA (paroxetine/5-HTP and citalopram/5-HTP) with Dunnets post-hoc test. Locomotor activity data were analyzed using two-way ANOVA with Dunnets post-hoc test. Tissue 5-HT data were analyzed using students t-test. Microdialysis 5-HT data were analyzed using two-way repeated measures ANOVA with Dunnets post-hoc test.

[3] = test system: brain 5-HT; test: Tissue 5-HT in frontal cortex and hippocampus of NMRI mice (HPLC-EC); conditions: acute administration
Description: as §1
Fluoxetine HCl, desipramine HCL, 5-hydroxytryptamine, citalopram HBr, paroxetine HCl, reboxetine fumarate and duloxetine oxalate. All drugs were administered i.p. in saline in a volume of 10 ml/kg. In the tail suspension and locomotor activity experiments drugs were injected 30 min prior to test.
Mice killed by cervical dislocation and the frontal cortex and hippocampus rapidly dissected, frozen on dry ice and stored at −80° C. until analysis by HPLC-EC.
as §2, §3

[4] = test system: C57Bl/6j mice; test: Tail suspension test in C57 mice; conditions: single drug i.p. 30 min prior to test, 6 min test
Source text: Drug candidates can be screened for antidepressant-like activity by using animal models. In the tail suspension test the mouse is suspended by its tail. The mouse will initially move and struggle but will with time become increasingly immobile. Pretreatment with a clinically effective antidepressant decreases the time spent immobile. This includes selective serotonin re-uptake inhibitors (SSRIs) and drugs inhibiting the noradrenaline reuptake mechanism, as well as some putative antidepressants with non-monoamine pharmacology. […] In animal models of depression, including the tail suspension test, mouse strains differ considerably in their responsiveness to antidepressants. […]
The tail suspension test employed was a modified version to that described elsewhere. […] The duration of immobility was measured using an automated system (Med Associates, USA) during the 6 min testing period.
as §3

N[C@@H](Cc1c[nH]c2ccc(O)cc12)C(=O)O [5-HTP, 5-hydroxytryptophan]
immobility in tail suspension test [1]: did not affect immobility
increase in extracellular 5-HT in the frontal cortex [2]: only a modest increase
5-HT levels ± sem, Frontal Cortex ([3]; frontal cortex tissue): 122 ± 3.3 % of saline
5-HT levels ± sem, Hippocampus ([3]; hippocampus tissue): 83.4 ± 2.6 % of saline
decrease of tissue 5-HT in the hippocampus ([3]; vs saline): 17%
increase of tissue 5-HT in the frontal cortex ([3]; vs saline): 22%

CNCCCN1c2ccccc2CCc2ccccc21 [desipramine]
immobility in tail suspension test [1]: reduced immobility
immobility in tail suspension test [4]: decreased immobility

CNCC[C@H](Oc1cccc2ccccc12)c1cccs1 [duloxetine]
immobility in tail suspension test [1]: reduced immobility

CNCCC(Oc1ccc(C(F)(F)F)cc1)c1ccccc1 (stereo not shown) [fluoxetine]
immobility in tail suspension test [1]: without effect

Fc1ccc([C@@H]2CCNC[C@H]2COc2ccc3c(c2)OCO3)cc1 [paroxetine]
immobility in tail suspension test [1]: without effect

CCOc1ccccc1OC(c1ccccc1)C1CNCCO1 (stereo not shown) [reboxetine]
immobility in tail suspension test [1]: reduced immobility
immobility in tail suspension test [4]: decreased immobility
